What is called IC50 is the concentration needed to halve the response being measured. As usually defined, the IC90 is the concentration at which the effect reaches the 90% level.

In data set [1] the test system is Dengue Virus (Type 2 New Guinea C). The experiment in a line: Dose response assay, DENV infection of Huh-7.5 cells, DENV envelope protein immunostaining, high-content imaging. Format: cell-based. The settings on record: MOI 0.5, 48 h post-infection; for IC50: read-out: IC50 of the anti-viral activity, DENV. As to the method:
Huh-7.5 cells (3×10^4 per well) were seeded in black 96-well optical-bottom plates [Nunc] in full growth medium one day prior to infection. After washing with PBS, 40 μl assay medium (5% FBS) was added to cells containing either Laby A1, Laby A2 (final conc. 50, 16.7, 5.56, 1.85, 0.62, 0.21, 0.069 μg/ml) or a combination of Laby A1 and Laby A2 (25, 8.3, 2.8, 0.93, 0.31, 0.10, 0.034 μg/ml each). Treatments were run in doublets. PBS served as a control. After 30 min of incubation, cells were infected with Dengue Virus (Type 2 New Guinea C) at an MOI of 0.5 to give a final volume of 60 μl/well. After 2 h incubation at room temperature cells were washed with PBS and 100 μl assay medium was added per well. Infected cells were incubated for another 48 h. Hereafter media were removed from the wells and cells were fixed with 4% PFA. Fixed cells were washed extensively with PBS and permeabilized with 0.25% TritonX-100 for 5 min. After blocking with 5% FB in PBS primary antibody was applied (Anti-Dengue Virus E glycoprotein antibody [DE1] (ab41349) [Abcam], 1:100 diluted in 5% FBS/PBS) for 2 h. After washing secondary antibody (Alexa Fluor® 488 Goat Anti-Mouse IgG (H+L) [Life Technologies], 1:1000 diluted in 5% FBS/PBS) was applied for 1 h. Finally, cells were stained with DAPI (500 ng/ml in PBS) for 5 min.
Fluorescent cells were analyzed by high-content imaging using the automated microscope ImageXpressMicro [Molecular Devices] and the MetaXpress-software. […] The number of total cells/site was determined by automatically counting DAPI-stained nuclei. The percentage of DENV-positive cells was calculated by automatically evaluating the number of Alexa Fluor 488-positive cells in relation to the total cell number. […] IC50-values were calculated by non-linear regression.
To determine a potential synergistic effect of Labyrinthopeptins A1 and A2 on DENV-infection a dose response assay was performed. […] The number of total cells as well as the percentage of Alexa Fluor 488-positive cells (=DENV positive cells) was determined by high-content fluorescence imaging.

Data set [2] can be described thus: Cell-based HTS system for cytotoxic concentration (CC50), FF-luc HEp-2 cells. The settings on record: 72 h, concentrations up to 100 μM, read-out: half maximal cytotoxic concentration (CC50). On the procedure: Cells (e.g. HEp-2 cells), which stably express the reporter gene of a firefly luciferase (FF-luc), may be seeded in a 96-well plate in media, e.g. in Gibco® Advanced MEM. After 72 h of incubation at 37° C. in the presence of increasing concentrations of the labyrinthopeptin, labyrinthopeptin derivative or combination to be tested (e.g. up to 100 μM), the cells may be lysed and the extinction of the FF-luc (RLU) may be measured. Therefore, a plate luminometer (Berthold) may be used. The number of surviving cells is […] proportional to residual luciferase expression.
A cell-based screening system was used to determine the cytotoxic concentration (CC50) of labyrinthopeptin A1 and A2.
1×10^4 HEp-2 cells, which are stably expressing the reporter gene of a firefly luciferase (FF-luc), were seeded in a 96-well plate in 200 μl appropriate media. After 72 h of incubation at 37° C. in the presence of increasing concentrations of labyrinthopeptin A1 or A2 up to 100 μM, the cells have been lysed in 35 μl lysis buffer and the extinction of the FF-luc (RLU) was measured using a plate luminometer (Berthold). The number of surviving cells is […] proportional to residual luciferase expression.

Data set [3] deals with wild-type RSV (hRSV). The settings on record: read-out: IC50 of the anti-viral activity, RSV; intracellular RSV-P staining, HEp 2 cells, MOI 1, 18 h post infection.
The test system of data set [4] is human respiratory syncytial virus (RSV). To be noted: read-out: IC50, inhibition of RSV induced cell death; FF-luc HEp-2 cells, MOI 3, 72 h, indirect assay.
The subject of data set [5] is KSHV. The settings on record: read-out: IC50 of the anti-viral activity, KSHV; HEK 293 cells, MOI 0.01, 48 h.
In data set [6] the test system is TBEV (Toro isolate). The settings on record: read-out: IC50 of the anti-viral activity, TBEV; Vero-B4 cells, MOI 0.01, 3 days, estimated by visual inspection.
Data set [7] relates to GFP-expressing CMV (HCMV) strain pHG-1 (HT8-GFP, AD169-based). The settings on record: read-out: IC50 of the anti-viral activity, CMV, NHDF cells, MOI 0.5, GFP at day 4 post infection.
For data set [8], the system named is CHIKV glycoprotein-mediated cell entry (CHIKV gp-pseudotyped lentiviral particles). To be noted: CHIKV glycoprotein pseudotypes, 293T cells, 48 h.
Data set [9] relates to VSV glycoprotein-mediated cell entry (VSV-G-pseudotyped lentiviral particles). To be noted: 48 h.
Data set [10] concerns ZIKV (Strain MR766-NIID). To be noted: read-out: IC50 of the anti-viral activity, ZIKV; Huh-7.5 cells, MOI 0.5, 48 h, genome copy equivalents.
Data set [11] concerns HCV JcR2a. The settings on record: Huh 7.5 Fluc cells, Renilla luciferase after 48 h.
Data set [12] relates to peripheral blood mononuclear cells (PBMCs). The settings on record: cited from earlier work.
Data set [13] relates to Huh 7.5 Fluc cells. Put plainly: Cell viability (firefly luciferase) in the HCV assay.
The subject of data set [14] is GFP-expressing CMV strain HT8-GFP (AD169). The experiment in a line: Mode of action assay, pretreatment of CMV particles or NHDF cells. Format: cell-based, Human cytomegalovirus. To be noted: LabyA1 3 μM, LabyA2 7 μM, PAA 180 μM.

Molecules are shown by their SMILES. Like-named read-outs stand apart in the source and are kept apart here.

Regarding `C#CCCCC(=O)N[C@H]1C[C@]2(CSC[C@@H](C(=O)N[C@H]3CSSC[C@@H](C(=O)O)NC(=O)[C@@H]4CSC[C@]5(C[C@H](NC3=O)C(=O)N[C@@H]([C@@H](C)O)C(=O)NCC(=O)N5)C(=O)N[C@@H](CC(C)C)C(=O)N[C@@H](Cc3ccccc3)C(=O)N[C@@H](C)C(=O)N4)NC(=O)[C@H](CCC(=O)O)NC(=O)[C@H](Cc3c[nH]c4ccccc34)NC(=O)[C@H](CC(C)C)NC2=O)NC(=O)[C@H](Cc2c[nH]c3ccccc23)NC(=O)[C@H](CC(=O)O)NC1=O` [LabyA2-hexyn], in [1], the “IC50 of the anti-viral activity, DENV” value stood at 14.2 µg/mL and the concentration for half-maximal inhibition (IC50) was determined as 7.03 µM.

As to `C/C=C1\NC(=O)[C@H](Cc2ccccc2)NC(=O)[C@@H]2CCCN2C(=O)[C@H](C(C)C)NC(=O)[C@H](Cc2c[nH]c3ccccc23)NC(=O)[C@]23CSC[C@H](NC1=O)C(=O)N[C@H](C(=O)O)CSSC[C@H](NC(=O)[C@@H]1CSC[C@]4(C[C@H](N)C(=O)N[C@@H](CC(N)=O)C(=O)N[C@@H](C)C(=O)N4)C(=O)N[C@@H](C(C)C)C(=O)N[C@@H](Cc4c[nH]c5ccccc45)C(=O)N[C@@H](CCC(=O)O)C(=O)N1)C(=O)N[C@@H](C2)C(=O)N[C@@H]([C@@H](C)O)C(=O)NCC(=O)N3` [LabyA1, Labyrinthopeptin A1], the IC50 in data set [1] is 1.78 µM; in data set [3], 0.39 µM; in data set [4], 3.87 µM; in [5] it was 2 µM; in data set [6] it was 24.1 µM; in [7], 1.3 µM. The IC50 in [7] (listed as Labyrinthopeptin A1) was roughly 1.3 µM; in data set [8] (read-out: IC50 of the anti-viral activity, CHIKV), 0.5 to 1.7 µM; in [9] it was 1.1 to 3.7 µM; in data set [10], 2.22 µM; in data set [11] (read-out: IC50 of the anti-viral activity, HCV (virus entry), 4 h inoculation) it was 1.05 µM. Moreover, in data set [2], the CC50 is 79.7 µM. Moreover, the “IC50 of the anti-viral activity, CHIKV” value in data set [8] lay within 1.0 to 3.5 µg/mL. Further, the “IC50 of the anti-viral activity, VSV” value in [9] is 2.3 to 7.7 µg/mL. In addition, the IC90 in data set [11] (read-out: IC90, inhibition of HCV virus entry) was 9.16 µM. Besides, the “inflammatory response in PBMCs” value in data set [12] was “does not cause an inflammatory response”. The “cytotoxicity at the tested concentrations in the HCV assay” value in [13] is “No cytotoxicity was observed”.

With `O=C(O)CP(=O)(O)O` [PAA, phosphonoacetic acid], the “inhibition of viral gene expression (CMV), permanently treated, effective dose” value in data set [14] (treatment throughout the infection cycle) was “exerted inhibition only when permanently present in the culture medium”. For the same compound, the “inhibition of viral gene expression (CMV), virus pretreated” value in data set [14] (virus pretreated 1 h then diluted 16-fold) was “not when it was removed after pretreatment of the virus or cells”.

Source of the values: patent US11331371B2, “Labyrinthopeptins as anti-viral agents” (Helmholtz-Zentrum Für Infektionsforschung GMBH, priority 2015, dated 2022).
